Results: patent US20240398837A1, “Combination Therapy For Prostate Cancer” (Janssen Pharmaceutica NV, priority 2017, published 2024)
Like-named read-outs stand apart in the source and are kept apart here.

Experiments:
[1] = test system: human VCaP prostate tumors; details: for TGI (%): day 58, vs. vehicle control; for TGI (%) / Tumor on day: p.o. Qd x 35; for ILS (%): increased life span, compared with group 1 (vehicle); for MLS: median lifespan, euthanized when tumor volume reached 1500 mm^3; for Tumor on day: tumor volume, Mean ± SEM, day 58, N=10/group
[2] = molecular target: PARP-1 (Homo sapiens, UniProt P09874); details: in words; cited from earlier work
Chain of PARP-1 (P09874 whole entry, species assumed): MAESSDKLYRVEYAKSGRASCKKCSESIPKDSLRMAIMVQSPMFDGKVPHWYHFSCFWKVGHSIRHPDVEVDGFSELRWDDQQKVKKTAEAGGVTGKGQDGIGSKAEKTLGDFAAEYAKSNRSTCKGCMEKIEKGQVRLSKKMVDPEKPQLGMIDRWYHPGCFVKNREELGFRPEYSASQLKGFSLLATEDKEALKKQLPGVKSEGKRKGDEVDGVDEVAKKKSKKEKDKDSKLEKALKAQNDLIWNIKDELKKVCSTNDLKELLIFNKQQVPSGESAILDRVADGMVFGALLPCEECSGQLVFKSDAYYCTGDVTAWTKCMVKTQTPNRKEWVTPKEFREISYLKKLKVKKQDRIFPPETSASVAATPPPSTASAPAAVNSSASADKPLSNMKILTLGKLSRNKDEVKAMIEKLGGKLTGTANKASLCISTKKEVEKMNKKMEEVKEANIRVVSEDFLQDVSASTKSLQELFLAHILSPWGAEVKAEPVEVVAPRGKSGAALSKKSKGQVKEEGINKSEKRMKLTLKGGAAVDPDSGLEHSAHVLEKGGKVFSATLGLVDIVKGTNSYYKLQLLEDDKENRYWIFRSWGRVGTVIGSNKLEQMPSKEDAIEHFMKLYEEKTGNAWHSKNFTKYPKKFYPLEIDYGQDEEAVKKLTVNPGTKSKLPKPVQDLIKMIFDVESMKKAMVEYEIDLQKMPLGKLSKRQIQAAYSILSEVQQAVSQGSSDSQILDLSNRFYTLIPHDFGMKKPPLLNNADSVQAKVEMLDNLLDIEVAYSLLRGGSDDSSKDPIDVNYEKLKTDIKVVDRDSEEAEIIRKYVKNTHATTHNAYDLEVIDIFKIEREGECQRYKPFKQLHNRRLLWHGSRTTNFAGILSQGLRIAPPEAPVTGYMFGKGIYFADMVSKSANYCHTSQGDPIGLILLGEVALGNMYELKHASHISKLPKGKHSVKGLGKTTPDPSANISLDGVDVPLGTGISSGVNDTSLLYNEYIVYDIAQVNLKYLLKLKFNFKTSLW

[3] = molecular target: PARP-2 (Homo sapiens, UniProt Q9UGN5); details: in words; cited from earlier work
Chain of PARP-2 (Q9UGN5 whole entry, species assumed): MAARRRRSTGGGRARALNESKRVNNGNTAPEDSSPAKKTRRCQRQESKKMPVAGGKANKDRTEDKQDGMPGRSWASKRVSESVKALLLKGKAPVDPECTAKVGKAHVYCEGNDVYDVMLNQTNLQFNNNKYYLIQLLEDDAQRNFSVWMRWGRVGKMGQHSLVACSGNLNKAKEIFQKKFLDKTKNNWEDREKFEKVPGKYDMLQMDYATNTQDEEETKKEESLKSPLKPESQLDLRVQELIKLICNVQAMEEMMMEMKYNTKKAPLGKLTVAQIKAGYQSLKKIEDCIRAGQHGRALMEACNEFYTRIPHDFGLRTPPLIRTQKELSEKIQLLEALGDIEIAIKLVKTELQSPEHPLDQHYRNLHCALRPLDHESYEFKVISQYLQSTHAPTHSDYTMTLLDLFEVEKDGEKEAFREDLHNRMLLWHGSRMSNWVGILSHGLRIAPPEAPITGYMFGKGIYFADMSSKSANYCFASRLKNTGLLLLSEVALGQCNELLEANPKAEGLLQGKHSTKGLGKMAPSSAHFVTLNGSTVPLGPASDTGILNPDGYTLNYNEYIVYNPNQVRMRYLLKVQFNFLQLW

[4] = test system: cancer cell lines that have been silenced for BRCA-1 or BRCA-2 genes, or that have BRCA-1 and BRCA-2 mutations; details: due to cell cycle arrest, followed by apoptosis; cited from earlier work
[5] = test system: BRCA-1-deficient breast, BRCA-2-deficient pancreatic and ovarian cancers; details: mice; cited from earlier work
[6] = test system: cytochrome P450 (CYP) enzymes; details: in words; cited from earlier work
[7] = test system: CYP1A2; details: preclinical data; cited from earlier work
[8] = cited from earlier work
[9] = molecular target: P-glycoprotein (Homo sapiens, UniProt P08183); details: cited from earlier work
Chain of P-glycoprotein (P08183 whole entry): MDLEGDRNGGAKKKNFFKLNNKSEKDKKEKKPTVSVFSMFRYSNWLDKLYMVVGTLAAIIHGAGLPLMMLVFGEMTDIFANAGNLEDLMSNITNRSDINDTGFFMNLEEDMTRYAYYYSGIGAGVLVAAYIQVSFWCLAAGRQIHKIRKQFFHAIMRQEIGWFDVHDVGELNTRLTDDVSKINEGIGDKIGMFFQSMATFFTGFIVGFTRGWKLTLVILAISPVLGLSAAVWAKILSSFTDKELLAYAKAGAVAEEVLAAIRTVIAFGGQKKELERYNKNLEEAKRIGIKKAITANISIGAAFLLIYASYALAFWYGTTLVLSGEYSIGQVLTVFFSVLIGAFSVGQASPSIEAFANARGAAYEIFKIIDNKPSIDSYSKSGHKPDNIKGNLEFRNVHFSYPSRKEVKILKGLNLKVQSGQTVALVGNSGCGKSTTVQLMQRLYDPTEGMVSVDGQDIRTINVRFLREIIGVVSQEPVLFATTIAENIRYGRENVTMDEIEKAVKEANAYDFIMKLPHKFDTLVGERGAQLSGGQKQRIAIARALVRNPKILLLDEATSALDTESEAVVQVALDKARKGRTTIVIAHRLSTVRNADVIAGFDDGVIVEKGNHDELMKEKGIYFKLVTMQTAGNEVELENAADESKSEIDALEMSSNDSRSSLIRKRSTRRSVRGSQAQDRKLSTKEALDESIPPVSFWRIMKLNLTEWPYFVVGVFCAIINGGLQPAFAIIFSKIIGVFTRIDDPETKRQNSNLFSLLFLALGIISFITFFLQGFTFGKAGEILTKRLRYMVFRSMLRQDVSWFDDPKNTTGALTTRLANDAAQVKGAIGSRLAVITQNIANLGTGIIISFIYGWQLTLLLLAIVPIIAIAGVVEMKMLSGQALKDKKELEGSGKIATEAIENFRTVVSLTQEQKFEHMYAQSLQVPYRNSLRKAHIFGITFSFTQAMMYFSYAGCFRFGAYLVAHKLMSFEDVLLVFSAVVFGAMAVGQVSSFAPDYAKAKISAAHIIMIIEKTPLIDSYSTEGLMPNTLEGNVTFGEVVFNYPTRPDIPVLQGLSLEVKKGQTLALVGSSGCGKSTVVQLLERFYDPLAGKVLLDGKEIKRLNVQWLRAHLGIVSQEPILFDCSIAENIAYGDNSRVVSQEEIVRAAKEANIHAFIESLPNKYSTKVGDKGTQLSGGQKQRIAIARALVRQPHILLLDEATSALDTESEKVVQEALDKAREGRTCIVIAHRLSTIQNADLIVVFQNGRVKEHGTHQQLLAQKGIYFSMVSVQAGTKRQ

[10] = test system: neurological function; details: conscious mice; cited from earlier work
[11] = anesthetized dogs; cited from earlier work
[12] = test system: androgens; details: cited from earlier work
[13] = test system: mCRPC; details: cited from earlier work
[14] = added to castration, relative to castration alone

Compound: C[C@]12CC[C@H](O)CC1=CC[C@@H]1[C@@H]2CC[C@]2(C)C(c3cccnc3)=CC[C@@H]12 [Abiraterone]
- TGI (%) [1]: 37.6%
- inhibition of tumor growth ([1]; days 37-55, compared with vehicle control): 35%-46%
- ILS (%) [1]: 13.1%
- MLS [1]: 88 days
- Tumor on day [1]: 523 ± 51 mm^3
- increase of MLS ([1]; vs the vehicle control group): 10.5 days

Compound: NC(=O)c1cccc2cn(-c3ccc([C@@H]4CCCNC4)cc3)nc12 [Niraparib, 2-[4-[(3S)-piperidin-3-yl]phenyl]indazole-7-carboxamide]
- TGI (%) [1]: 20.8%
- inhibition of tumor growth ([1]; days 41-55, compared with vehicle control): approximately 25%
- MLS / survival benefit ([1]; in words, compared with the vehicle control group): did not increase MLS or provide a significant survival benefit
- ILS (%) [1]: −0.6%
- MLS [1]: 79 days
- Tumor on day [1]: 664 ± 50 mm^3
- activity against PARP-1 [2]: potent activity
- activity against PARP-2 [3]: potent activity
- anti-proliferative activity [4]: demonstrates anti-proliferative activity
- antitumor activity [5]: has antitumor activity
- inhibition or induction of CYP enzymes [6]: not a potent inhibitor or inducer
- potential to induce CYP1A2 enzymes [7]: moderate potential
- metabolism ([8]; in vitro, multiple metabolic enzymes (both CYPs and non-CYPs)): limited metabolism
- clearance ([8]; in words): low clearance drug
- P-glycoprotein substrate [9]: is a P-glycoprotein substrate
- effect on neurological function [10]: no effect
- QRS cardiac interval [11]: increased
- QTc interval [11]: unaffected
- heart rate [11]: increased
- mean arterial pressure [11]: increased

Compound: CC(=O)O[C@H]1CC[C@@]2(C)C(=CC[C@@H]3[C@@H]2CC[C@]2(C)C(c4cccnc4)=CC[C@@H]32)C1 [abiraterone acetate, 3β-acetoxy-17-(3-pyridyl)androsta-5,16-diene]
- reduction of levels of DHEA [12, 14]: 97-98%
- reduction of levels of DHT [12, 14]: 85%
- reduction of levels of androstenedione [12, 14]: 77-78%
- circulating testosterone levels ([12]; after administration of abiraterone acetate, castration gives 20 ng/dL): less than 1 ng/dL

Compound: O=C(c1cc(Cc2n[nH]c(=O)c3ccccc23)ccc1F)N1CCN(C(=O)C2CC2)CC1 [olaparib]
- responders that were biomarker-positive for anomalies in DNA-repair genes ([13]; 14 of the 16 responding patients): 88%
- patients with a response ([13]; all patients, sixteen of 49, 95% CI 20%, 48%): 33%
- Overall survival (OS), median ([13]; biomarker-negative group): 7.5 months
- Radiographic progression-free survival (rPFS), median ([13]; biomarker-negative group): 2.7 months
- patients with a response ([13]; biomarker-negative, 2 of 33): 6%
- Overall survival (OS), median ([13]; biomarker-positive group): 13.8 months
- Radiographic progression-free survival (rPFS), median ([13]; biomarker-positive group): 9.8 months
- patients with a response ([13]; patients with ATM aberrations): 4 of 5
- patients with a response ([13]; patients with BRCA-2 loss): all 7
